Patent US7981903B2, “2-[2-{phenylamino}-1H-pyrrolo[2,3-D]pyrimidin-4-yl)amino] benzamide derivatives as IGF-1R inhibitors for the treatment of cancer” (GlaxoSmithKline LLC, priority 2007, dated 2011)

How the values were obtained:
human IR (hIR) = molecular target: T1, human IR (hIR) (Homo sapiens, UniProt P06213); test: TR-FRET kinase assay of purified hIR; assay type: biochemical; conditions: activated hIR 0.5 nM, 10 μM ATP, values given as pIC50 category
T1 construct: containing amino acid residues 979-1382 of human IR; made in house; host or cells: Sf9 cells (baculovirus), same process as hIGF1R
T1 sequence (P06213 979-1382): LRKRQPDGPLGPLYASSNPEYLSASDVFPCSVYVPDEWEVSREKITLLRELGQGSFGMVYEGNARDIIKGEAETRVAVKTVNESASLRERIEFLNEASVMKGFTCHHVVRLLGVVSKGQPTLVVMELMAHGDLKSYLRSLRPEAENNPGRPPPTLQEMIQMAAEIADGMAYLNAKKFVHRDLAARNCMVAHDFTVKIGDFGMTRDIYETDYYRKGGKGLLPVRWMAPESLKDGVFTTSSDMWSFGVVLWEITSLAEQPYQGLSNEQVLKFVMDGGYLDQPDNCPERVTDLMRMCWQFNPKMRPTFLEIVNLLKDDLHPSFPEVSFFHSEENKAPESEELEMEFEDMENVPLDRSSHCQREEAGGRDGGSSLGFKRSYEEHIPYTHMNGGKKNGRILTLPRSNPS

ALK = ALK (Homo sapiens, UniProt Q9UM73); test: ALK enzyme assay (HTRF); assay type: biochemical; conditions: 0.25 nM ALK, 15.0 μM ATP, values given as pIC50 category
Chain of ALK (Q9UM73 19-1620): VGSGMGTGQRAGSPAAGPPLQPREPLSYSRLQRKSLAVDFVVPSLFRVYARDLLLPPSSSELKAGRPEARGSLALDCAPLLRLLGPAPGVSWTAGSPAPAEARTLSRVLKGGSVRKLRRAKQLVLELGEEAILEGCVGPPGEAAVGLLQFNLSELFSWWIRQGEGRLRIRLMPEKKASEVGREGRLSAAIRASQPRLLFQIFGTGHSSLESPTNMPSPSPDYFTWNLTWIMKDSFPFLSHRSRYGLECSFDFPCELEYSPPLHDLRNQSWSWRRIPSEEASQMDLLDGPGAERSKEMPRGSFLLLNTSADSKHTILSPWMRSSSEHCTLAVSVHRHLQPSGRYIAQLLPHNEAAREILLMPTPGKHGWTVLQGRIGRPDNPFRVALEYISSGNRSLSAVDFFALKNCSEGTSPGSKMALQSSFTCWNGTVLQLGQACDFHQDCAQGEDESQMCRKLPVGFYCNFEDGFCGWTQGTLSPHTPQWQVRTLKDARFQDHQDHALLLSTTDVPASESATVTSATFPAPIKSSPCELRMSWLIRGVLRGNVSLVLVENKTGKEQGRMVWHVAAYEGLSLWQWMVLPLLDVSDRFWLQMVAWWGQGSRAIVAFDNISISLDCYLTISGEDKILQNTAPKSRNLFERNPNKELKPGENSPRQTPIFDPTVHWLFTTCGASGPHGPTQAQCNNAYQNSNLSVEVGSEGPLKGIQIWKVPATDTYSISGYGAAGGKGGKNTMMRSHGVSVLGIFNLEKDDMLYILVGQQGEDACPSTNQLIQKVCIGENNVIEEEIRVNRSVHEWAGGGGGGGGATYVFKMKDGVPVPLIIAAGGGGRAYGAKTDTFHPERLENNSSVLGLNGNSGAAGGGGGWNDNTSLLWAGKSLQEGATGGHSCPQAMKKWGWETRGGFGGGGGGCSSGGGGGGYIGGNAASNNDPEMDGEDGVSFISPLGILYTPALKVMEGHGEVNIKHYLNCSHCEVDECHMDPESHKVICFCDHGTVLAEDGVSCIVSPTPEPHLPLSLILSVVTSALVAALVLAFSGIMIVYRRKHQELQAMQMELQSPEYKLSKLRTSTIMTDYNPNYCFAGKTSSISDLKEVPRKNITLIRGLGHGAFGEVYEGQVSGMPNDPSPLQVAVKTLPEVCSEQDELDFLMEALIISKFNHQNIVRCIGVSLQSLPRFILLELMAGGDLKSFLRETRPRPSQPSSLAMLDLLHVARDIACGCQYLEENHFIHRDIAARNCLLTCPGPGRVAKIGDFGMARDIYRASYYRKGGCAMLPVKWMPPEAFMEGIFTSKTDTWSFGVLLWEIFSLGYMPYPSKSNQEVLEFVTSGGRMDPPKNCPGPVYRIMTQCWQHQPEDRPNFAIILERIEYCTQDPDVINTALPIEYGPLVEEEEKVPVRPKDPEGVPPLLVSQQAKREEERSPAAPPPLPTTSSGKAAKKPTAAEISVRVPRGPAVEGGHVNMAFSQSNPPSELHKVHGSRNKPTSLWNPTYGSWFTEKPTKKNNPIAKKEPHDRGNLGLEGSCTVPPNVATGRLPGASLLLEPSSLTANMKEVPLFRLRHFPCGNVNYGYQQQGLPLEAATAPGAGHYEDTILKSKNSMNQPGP
Outline: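 Final compound range 0.00017 to 10 μM (twelve 1:3 dilutions). Kinase reaction with ATP and biotinylated synthetic peptide runs 120 min at 20° C, stopped with EDTA; phosphotyrosine detected by HTRF after 60 min. Inhibition referenced to DMSO (1%) and EDTA (0.1 M) controls, curve-fitted.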

[1] = molecular target: T2, NIH-3T3 cells overexpressing human IGF-1R (Homo sapiens, UniProt P08069); test: IGF-1R cellular autophosphorylation (DELFIA); assay type: cell-based
T2 construct: expressed in transfected cells; host or cells: NIH-3T3 (mouse fibroblasts)
T2 sequence (P08069 31-1367): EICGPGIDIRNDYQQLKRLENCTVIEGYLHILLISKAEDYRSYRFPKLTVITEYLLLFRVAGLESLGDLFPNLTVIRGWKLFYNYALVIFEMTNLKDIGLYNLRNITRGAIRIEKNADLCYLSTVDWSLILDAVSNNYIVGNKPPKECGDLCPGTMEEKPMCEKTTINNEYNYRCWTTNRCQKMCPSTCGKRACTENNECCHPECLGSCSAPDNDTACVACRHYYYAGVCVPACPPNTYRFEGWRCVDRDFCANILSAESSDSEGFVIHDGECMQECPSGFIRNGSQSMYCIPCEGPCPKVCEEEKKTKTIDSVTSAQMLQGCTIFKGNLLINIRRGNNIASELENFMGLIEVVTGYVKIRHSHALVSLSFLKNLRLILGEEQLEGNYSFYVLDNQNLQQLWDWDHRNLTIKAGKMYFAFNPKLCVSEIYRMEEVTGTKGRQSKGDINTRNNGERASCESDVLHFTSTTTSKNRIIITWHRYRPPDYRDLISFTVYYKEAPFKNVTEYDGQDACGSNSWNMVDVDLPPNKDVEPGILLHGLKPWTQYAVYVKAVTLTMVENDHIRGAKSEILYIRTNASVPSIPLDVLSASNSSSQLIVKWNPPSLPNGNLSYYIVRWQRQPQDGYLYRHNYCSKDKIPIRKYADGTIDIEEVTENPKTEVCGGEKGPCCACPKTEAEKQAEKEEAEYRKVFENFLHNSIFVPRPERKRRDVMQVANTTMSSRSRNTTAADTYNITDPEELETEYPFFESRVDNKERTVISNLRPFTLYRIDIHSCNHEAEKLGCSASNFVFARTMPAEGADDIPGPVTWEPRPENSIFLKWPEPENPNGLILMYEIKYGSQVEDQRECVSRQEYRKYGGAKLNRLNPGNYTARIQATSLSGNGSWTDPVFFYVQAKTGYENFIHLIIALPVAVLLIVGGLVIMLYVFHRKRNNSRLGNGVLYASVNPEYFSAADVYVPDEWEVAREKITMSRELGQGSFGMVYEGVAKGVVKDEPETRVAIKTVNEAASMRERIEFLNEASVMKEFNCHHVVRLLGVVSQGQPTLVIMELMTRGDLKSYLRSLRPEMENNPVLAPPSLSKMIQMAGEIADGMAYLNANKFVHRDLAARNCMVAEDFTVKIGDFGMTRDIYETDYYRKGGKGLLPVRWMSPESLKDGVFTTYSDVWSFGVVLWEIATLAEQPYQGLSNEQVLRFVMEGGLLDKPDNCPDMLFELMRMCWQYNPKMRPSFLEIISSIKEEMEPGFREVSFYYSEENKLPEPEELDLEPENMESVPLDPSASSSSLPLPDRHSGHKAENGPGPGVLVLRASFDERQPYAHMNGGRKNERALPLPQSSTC
Outline: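 Receptor autophosphorylation measured by DELFIA, capturing IGF-1R or IRβ and detecting with europium anti-pTyr, reported as percent of IGF-1- or insulin-stimulated signal. Compounds (30 uM to 1.5 nM) added 2 h before ligand, then 15 min stimulation (IGF-1 30 ng/ml or insulin 3 ug/ml).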

| SMILES | IC50 (human IR (hIR)) [nM] | IC50 (ALK) [nM] | IC50 [1] [nM] |
| --- | --- | --- | --- |
| COc1ccc(N2CCN(C)CC2)cc1Nc1nc(Nc2ccccc2C(N)=O)c2cc[nH]c2n1 [Example 9, 2-[(2-{[2-(methyloxy)-5-(4-methyl-1-piperazinyl)phenyl]amino}-1H-pyrrolo[2,3-d]pyrimidin-4-yl)amino]benzamide] | 1.26 to 3.98 | 1.26 to 3.98 | 100 to 500 |
| COc1ccc(N2CCN(C(C)C)CC2)cc1Nc1nc(Nc2ccccc2C(N)=O)c2cc[nH]c2n1 [Example 10, 2-[(2-{[5-[4-(1-methylethyl)-1-piperazinyl]-2-(methyloxy)phenyl]amino}-1H-pyrrolo[2,3-d]pyrimidin-4-yl)amino]benzamide] | 1.26 to 3.98 | 1.26 to 3.98 | 100 to 500 |
| CN(C)CC(=O)Nc1ccc(Cl)c(Nc2nc(Nc3ccccc3C(N)=O)c3cc[nH]c3n2)c1 [Example 18, 2-{[2-({2-chloro-5-[(N,N-dimethylglycyl)amino]phenyl}amino)-1H-pyrrolo[2,3-d]pyrimidin-4-yl]amino}benzamide] | 0.251 to 1 | 1.26 to 3.98 | < 100 |
| COc1cc(N2CCC(N3CC[C@H](F)C3)CC2)ccc1Nc1nc(Nc2cccc(F)c2C(N)=O)c2cc[nH]c2n1 [Example 43, 2-fluoro-6-[(2-{[4-{4-[(3S)-3-fluoro-1-pyrrolidinyl]-1-piperidinyl}-2-(methyloxy)phenyl]amino}-1H-pyrrolo[2,3-d]pyrimidin-4-yl)amino]benzamide] | 1.26 to 3.98 | 1.26 to 3.98 | 100 to 500 |
| COc1cc(N2CCC(N3CC[C@@H](F)C3)CC2)ccc1Nc1nc(Nc2cccc(F)c2C(N)=O)c2cc[nH]c2n1 [Example 44, 2-fluoro-6-[(2-{[4-{4-[(3R)-3-fluoro-1-pyrrolidinyl]-1-piperidinyl}-2-(methyloxy)phenyl]amino}-1H-pyrrolo[2,3-d]pyrimidin-4-yl)amino]benzamide] | 1.26 to 3.98 | 1.26 to 3.98 | > 500 |
| COc1cc(N2CCN(C(C)C)CC2)ccc1Nc1nc(Nc2cccc(F)c2C(N)=O)c2cc[nH]c2n1 [Example 46, 2-fluoro-6-[(2-{[4-[4-(1-methylethyl)-1-piperazinyl]-2-(methyloxy)phenyl]amino}-1H-pyrrolo[2,3-d]pyrimidin-4-yl)amino]benzamide] | – | 0.251 to 1 | 100 to 500 |
| COc1cc(N2CCN(C(C)C)CC2)c(F)cc1Nc1nc(Nc2cccc(F)c2C(N)=O)c2cc[nH]c2n1 [Example 48, 2-fluoro-6-[(2-{[5-fluoro-4-[4-(1-methylethyl)-1-piperazinyl]-2-(methyloxy)phenyl]amino}-1H-pyrrolo[2,3-d]pyrimidin-4-yl)amino]benzamide] | – | 0.251 to 1 | 100 to 500 |
| COc1cc(N2CCOC[C@@H]2C)ccc1Nc1nc(Nc2cccc(F)c2C(N)=O)c2cc[nH]c2n1 [Example 49, 2-fluoro-6-[(2-{[4-[(3S)-3-methyl-4-morpholinyl]-2-(methyloxy)phenyl]amino}-1H-pyrrolo[2,3-d]pyrimidin-4-yl)amino]benzamide] | 1.26 to 3.98 | 1.26 to 3.98 | 100 to 500 |
| COc1c(Nc2nc(Nc3cccc(F)c3C(N)=O)c3cc[nH]c3n2)ccc(N2CCN(C(C)C)CC2)c1F [Example 51, 2-fluoro-6-[(2-{[3-fluoro-4-[4-(1-methylethyl)-1-piperazinyl]-2-(methyloxy)phenyl]amino}-1H-pyrrolo[2,3-d]pyrimidin-4-yl)amino]benzamide] | – | 1.26 to 3.98 | > 500 |
| COc1cc(N2CCN(CCS(C)(=O)=O)CC2)c(C)cc1Nc1nc(Nc2cccc(F)c2C(N)=O)c2cc[nH]c2n1 [Example 52, 2-fluoro-6-({2-[(5-methyl-2-(methyloxy)-4-{4-[2-(methylsulfonyl)ethyl]-1-piperazinyl}phenyl)amino]-1H-pyrrolo[2,3-d]pyrimidin-4-yl}amino)benzamide] | – | 1.26 to 3.98 | < 100 |
| COc1cc(N2CCC(N3CCOCC3)CC2)ccc1Nc1nc(Nc2ccc(F)cc2C(N)=O)c2cc[nH]c2n1 [Example 59, 5-fluoro-2-{[2-({2-(methyloxy)-4-[4-(4-morpholinyl)-1-piperidinyl]phenyl}amino)-1H-pyrrolo[2,3-d]pyrimidin-4-yl]amino}benzamide] | 0.251 to 1 | 0.251 to 1 | < 100 |
| COc1cc(N2CCOC[C@@H]2C)ccc1Nc1nc(Nc2ccc(F)cc2C(N)=O)c2cc[nH]c2n1 [Example 61, 5-fluoro-2-[(2-{[4-[(3S)-3-methyl-4-morpholinyl]-2-(methyloxy)phenyl]amino}-1H-pyrrolo[2,3-d]pyrimidin-4-yl)amino]benzamide] | 0.251 to 1 | 1.26 to 3.98 | < 100 |
| COc1cc(N2CCN(C(C)C)CC2)ccc1Nc1nc(Nc2ccc(Br)cc2C(N)=O)c2cc[nH]c2n1 [Example 68, 5-bromo-2-[(2-{[4-[4-(1-methylethyl)-1-piperazinyl]-2-(methyloxy)phenyl]amino}-1H-pyrrolo[2,3-d]pyrimidin-4-yl)amino]benzamide] | 0.251 to 1 | 0.251 to 1 | 100 to 500 |
| CCCN1CCC=C(c2ccc(Nc3nc(Nc4cc(F)ccc4C(N)=O)c4cc[nH]c4n3)c(OC)c2)C1 [Example 70, 4-fluoro-2-[(2-{[2-(methyloxy)-4-(1-propyl-1,2,5,6-tetrahydro-3-pyridinyl)phenyl]amino}-1H-pyrrolo[2,3-d]pyrimidin-4-yl)amino]benzamide] | 0.251 to 1 | 0.251 to 1 | < 100 |
| CCCN1CCCC(c2ccc(Nc3nc(Nc4cc(F)ccc4C(N)=O)c4cc[nH]c4n3)c(OC)c2)C1 (centres unmarked) [Example 71, 4-fluoro-2-[(2-{[2-(methyloxy)-4-(1-propyl-3-piperidinyl)phenyl]amino}-1H-pyrrolo[2,3-d]pyrimidin-4-yl)amino]benzamide] | 0.251 to 1 | 0.251 to 1 | < 100 |
| COc1cc(C2=CCN(C(C)C)CC2)ccc1Nc1nc(Nc2cc(F)ccc2C(N)=O)c2cc[nH]c2n1 [Example 72, 4-fluoro-2-[(2-{[4-[1-(1-methylethyl)-1,2,3,6-tetrahydro-4-pyridinyl]-2-(methyloxy)phenyl]amino}-1H-pyrrolo[2,3-d]pyrimidin-4-yl)amino]benzamide] | 0.251 to 1 | 0.251 to 1 | < 100 |
| CCCN1CCC(c2ccc(Nc3nc(Nc4cc(F)ccc4C(N)=O)c4cc[nH]c4n3)c(OC)c2)CC1 [Example 73, 4-fluoro-2-[(2-{[2-(methyloxy)-4-(1-propyl-4-piperidinyl)phenyl]amino}-1H-pyrrolo[2,3-d]pyrimidin-4-yl)amino]benzamide] | 0.251 to 1 | 0.251 to 1 | < 100 |
| COc1cc(N2CCC[C@H](O)C2)ccc1Nc1nc(Nc2cc(F)ccc2C(N)=O)c2cc[nH]c2n1 [Example 74, 4-fluoro-2-[(2-{[4-[(3S)-3-hydroxy-1-piperidinyl]-2-(methyloxy)phenyl]amino}-1H-pyrrolo[2,3-d]pyrimidin-4-yl)amino]benzamide] | 0.251 to 1 | 1.26 to 3.98 | 100 to 500 |
| COc1cc(N2CCC(N3CC[C@H](F)C3)CC2)ccc1Nc1nc(Nc2cc(F)ccc2C(N)=O)c2cc[nH]c2n1 [Example 75, 4-fluoro-2-[(2-{[4-{4-[(3S)-3-fluoro-1-pyrrolidinyl]-1-piperidinyl}-2-(methyloxy)phenyl]amino}-1H-pyrrolo[2,3-d]pyrimidin-4-yl)amino]benzamide] | 0.251 to 1 | 1.26 to 3.98 | < 100 |
| COc1cc(N2CCC(N3CC[C@@H](F)C3)CC2)ccc1Nc1nc(Nc2cc(F)ccc2C(N)=O)c2cc[nH]c2n1 [Example 76, 4-fluoro-2-[(2-{[4-{4-[(3R)-3-fluoro-1-pyrrolidinyl]-1-piperidinyl}-2-(methyloxy)phenyl]amino}-1H-pyrrolo[2,3-d]pyrimidin-4-yl)amino]benzamide] | 0.251 to 1 | 1.26 to 3.98 | < 100 |
| COc1cc(N2CCC(N3CCCC(F)(F)C3)CC2)ccc1Nc1nc(Nc2cc(F)ccc2C(N)=O)c2cc[nH]c2n1 [Example 77, 2-[(2-{[4-(3,3-difluoro-1,4′-bipiperidin-1′-yl)-2-(methyloxy)phenyl]amino}-1H-pyrrolo[2,3-d]pyrimidin-4-yl)amino]-4-fluorobenzamide] | 0.251 to 1 | 1.26 to 3.98 | 100 to 500 |
| COc1cc(N2CCN(CC3CC3)CC2)ccc1Nc1nc(Nc2cc(F)ccc2C(N)=O)c2cc[nH]c2n1 [Example 81, 2-[(2-{[4-[4-(cyclopropylmethyl)-1-piperazinyl]-2-(methyloxy)phenyl]amino}-1H-pyrrolo[2,3-d]pyrimidin-4-yl)amino]-4-fluorobenzamide] | 1.26 to 3.98 | 0.251 to 1 | < 100 |
| COc1cc(N2CCN(C(C)C)CC2)c(OC)cc1Nc1nc(Nc2cc(F)ccc2C(N)=O)c2cc[nH]c2n1 [Example 82, 4-fluoro-2-[(2-{[4-[4-(1-methylethyl)-1-piperazinyl]-2,5-bis(methyloxy)phenyl]amino}-1H-pyrrolo[2,3-d]pyrimidin-4-yl)amino]benzamide] | 1.26 to 3.98 | 1.26 to 3.98 | < 100 |
| COc1cc(N2CCOCC2)ccc1Nc1nc(Nc2cc(F)ccc2C(N)=O)c2cc[nH]c2n1 [Example 83, 4-fluoro-2-[(2-{[2-(methyloxy)-4-(4-morpholinyl)phenyl]amino}-1H-pyrrolo[2,3-d]pyrimidin-4-yl)amino]benzamide] | 1.26 to 3.98 | 5.01 to 200 | < 100 |
